# Results published in PubChem BioAssay AID330 (DTP/NCI, 2004).
# “And” between values parts separate entries of the source, which are not always exact repeats. Equal values may be shown once. Inconclusive results and toxic doses are left out.
# Tested on: P388 leukemia ip, CD2F1 mice, survival T/C
# Experiment: NCI In Vivo Anticancer Drug Screen. Data for tumor model P388 Leukemia (intraperitoneal) in CD2F1 (CDF1) mice
# Conditions: endpoint: median survival time, higher = longer survival
# In short: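 Mice carrying the transplanted tumor received test compound or vehicle. Survival was recorded in each group, and the value is the treated-group measurement divided by that of the vehicle-treated control group.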
# [1] = dose: 25.0 mg/kg/injection, schedule: Q01DX009 (ip), vehicle: saline with Tween-80
# [2] = dose: 50.0 mg/kg/injection, schedule: Q01DX009 (ip), vehicle: saline with Tween-80
# [3] = dose: 100.0 mg/kg/injection, schedule: Q01DX009 (ip), vehicle: saline with Tween-80
# [4] = dose: 200.0 mg/kg/injection, schedule: Q01DX009 (ip), vehicle: saline with Tween-80
# [5] = dose: 25.0 mg/kg/injection, schedule: Q01DX005 (ip), vehicle: saline with Tween-80
# [6] = dose: 50.0 mg/kg/injection, schedule: Q01DX005 (ip), vehicle: saline with Tween-80
# [7] = dose: 100.0 mg/kg/injection, schedule: Q01DX005 (ip), vehicle: saline with Tween-80
# [8] = dose: 200.0 mg/kg/injection, schedule: Q01DX005 (ip), vehicle: saline with Tween-80
# [9] = dose: 100.0 mg/kg/injection, schedule: Q04DX003 (ip), vehicle: saline with Tween-80
# [10] = dose: 200.0 mg/kg/injection, schedule: Q04DX003 (ip), vehicle: saline with Tween-80
smiles,measurement,setting,value
Cc1ccc(O)c(C(c2cc(C)ccc2O)c2cc(C)ccc2O)c1,T/C,[1],107 % of control
same,T/C,[2],105 % of control and 113 % of control
same,T/C,[3],101 % of control
CC(C)[N+](C)(C)CC(O)COc1cccc2ccccc12 (stereo unspecified),T/C,"dose: 50.0 mg/kg/injection, schedule: Q01DX009 (ip), vehicle: saline",104 % of control
N#CC(CN1CCOCC1)CN1CCOCC1,T/C,[2],95 % of control
same,T/C,[3],101 % of control
same,T/C,[4],96 % of control
CN(C)/N=C1\C(=O)Nc2ccc(Br)cc21,T/C,"dose: 50.0 mg/kg/injection, schedule: Q01DX009 (ip), vehicle: Klucel (hydroxypropylcellulose) (HPC)",100 % of control
same,T/C,"dose: 100.0 mg/kg/injection, schedule: Q01DX009 (ip), vehicle: Klucel (hydroxypropylcellulose) (HPC)",113 % of control
same,T/C,"dose: 200.0 mg/kg/injection, schedule: Q01DX009 (ip), vehicle: Klucel (hydroxypropylcellulose) (HPC)",108 % of control
CCCC[CH2][Pb]([CH2]CCCC)([CH2]CCCC)[O]C(C)=O,T/C,"dose: 0.25 mg/kg/injection, schedule: Q01DX009 (ip), vehicle: saline sonified",104 % of control
same,T/C,"dose: 0.5 mg/kg/injection, schedule: Q01DX009 (ip), vehicle: saline sonified",109 % of control
same,T/C,"dose: 1.0 mg/kg/injection, schedule: Q01DX009 (ip), vehicle: saline sonified",104 % of control
CC(C)CC(CO)Cc1nc2ccccc2[nH]1 (stereo unspecified),T/C,"dose: 60.0 mg/kg/injection, schedule: Q01DX005 (ip), vehicle: saline with Tween-80",114 % of control
same,T/C,"dose: 120.0 mg/kg/injection, schedule: Q01DX005 (ip), vehicle: saline with Tween-80",105 % of control
CCCCCc1nc2c(c3c1CCCC3)CCCC2,T/C,"dose: 60.0 mg/kg/injection, schedule: Q01DX005 (ip), vehicle: saline",98 % of control
same,T/C,"dose: 120.0 mg/kg/injection, schedule: Q01DX005 (ip), vehicle: saline",106 % of control
same,T/C,"dose: 240.0 mg/kg/injection, schedule: Q01DX005 (ip), vehicle: saline",107 % of control
Cc1cc(N2C(=O)CCSC2=S)c([N+](=O)[O-])cc1C,T/C,"dose: 50.0 mg/kg/injection, schedule: Q01DX009 (ip), vehicle: suspension in saline",98 % of control
same,T/C,"dose: 100.0 mg/kg/injection, schedule: Q01DX009 (ip), vehicle: suspension in saline",91 % of control
same,T/C,"dose: 200.0 mg/kg/injection, schedule: Q01DX009 (ip), vehicle: suspension in saline",94 % of control
C[C@]12CC[C@@H]3c4ccc(O)c(N)c4CC[C@H]3[C@@H]1CC[C@@H]2O,T/C,"dose: 12.5 mg/kg/injection, schedule: Q01DX005 (ip), vehicle: saline with Tween-80",93 % of control
same,T/C,[5],88 % of control
same,T/C,[6],94 % of control
same,T/C,[7],90 % of control
same,T/C,[8],90 % of control
CON(Cc1ccc(C(=O)NC(C)C)cc1)Cc1ccc(C(=O)NC(C)C)cc1,T/C,"dose: 25.0 mg/kg/injection, schedule: Q01DX009 (ip), vehicle: other",94 % of control
same,T/C,"dose: 50.0 mg/kg/injection, schedule: Q01DX009 (ip), vehicle: other",100 % of control
same,T/C,"dose: 100.0 mg/kg/injection, schedule: Q01DX009 (ip), vehicle: other",92 % of control
CC(=NCc1ccccc1)/C(=N\O)C(=O)Nc1ccc(Cl)cc1,T/C,"dose: 400.0 mg/kg/injection, schedule: Q04DX003 (ip), vehicle: saline with Tween-80",96 % of control
CCOCN(COCC)C(C)Cc1ccccc1 (stereo unspecified),T/C,"dose: 3.13 mg/kg/injection, schedule: Q01DX009 (ip), vehicle: saline with Tween-80",104 % of control
same,T/C,"dose: 6.25 mg/kg/injection, schedule: Q01DX009 (ip), vehicle: saline with Tween-80",107 % of control
same,T/C,"dose: 12.5 mg/kg/injection, schedule: Q01DX009 (ip), vehicle: saline with Tween-80",114 % of control
same,T/C,[1],123 % of control
[Cl][Cu][Cl].[O-][n+]1c2ccccc2nc2ccccc21,T/C,"dose: 12.5 mg/kg/injection, schedule: Q04DX003 (ip), vehicle: saline with Tween-80",92 % of control
same,T/C,"dose: 25.0 mg/kg/injection, schedule: Q04DX003 (ip), vehicle: saline with Tween-80",103 % of control
Cc1nc2[nH]c(=O)[nH]c(=O)c2[nH]1,T/C,[9],100 % of control
same,T/C,[10],113 % of control
C=C1C(=O)O[C@H]2/C=C(/C)C3=CC(=O)[C@@](C)(C[C@@H](OC(=O)/C(C)=C\C)C12)O3 (stereo partly specified),T/C,"dose: 1.56 mg/kg/injection, schedule: Q01DX005 (ip), vehicle: Klucel (hydroxypropylcellulose) (HPC)",102 % of control
same,T/C,"dose: 3.12 mg/kg/injection, schedule: Q01DX005 (ip), vehicle: Klucel (hydroxypropylcellulose) (HPC)",105 % of control
same,T/C,"dose: 6.25 mg/kg/injection, schedule: Q01DX005 (ip), vehicle: Klucel (hydroxypropylcellulose) (HPC)",105 % of control
same,T/C,"dose: 12.5 mg/kg/injection, schedule: Q01DX005 (ip), vehicle: Klucel (hydroxypropylcellulose) (HPC)",89 % of control and 96 % of control
CN1C(Sc2ccccc2)=NN(c2ccccc2)CN1c1ccccc1,T/C,"dose: 50.0 mg/kg/injection, schedule: Q04DX003 (ip), vehicle: saline with Tween-80",93 % of control
same,T/C,[9],97 % of control
same,T/C,[10],88 % of control
CNC(=O)OCc1c(COC(=O)NC)c(C)n(-c2ccc(F)cc2)c1C,T/C,"dose: 25.0 mg/kg/injection, schedule: Q01DX009 (ip), vehicle: saline",155 % of control
N#C/C(=C/c1ccc(Cl)cc1)C(N)=O,T/C,"dose: 25.0 mg/kg/injection, schedule: Q01DX001 (ip), vehicle: saline with Tween-80",102 % of control
same,T/C,"dose: 50.0 mg/kg/injection, schedule: Q01DX001 (ip), vehicle: saline with Tween-80",104 % of control
same,T/C,"dose: 100.0 mg/kg/injection, schedule: Q01DX001 (ip), vehicle: saline with Tween-80",97 % of control
same,T/C,"dose: 200.0 mg/kg/injection, schedule: Q01DX001 (ip), vehicle: saline with Tween-80",97 % of control
CCc1cccc(CC)c1N1C(=O)C(=O)C(C(C)=O)C1=O (stereo unspecified),T/C,[5],101 % of control
same,T/C,[6],99 % of control and 101 % of control
same,T/C,[7],101 % of control
same,T/C,[8],89 % of control
CCOc1ccc(Nc2cc([N+](=O)[O-])ccc2C(=O)O)cc1,T/C,[2],91 % of control
same,T/C,[4],108 % of control
COc1cc([C@@H]2c3cc4c(cc3[C@H](OC(=O)CCCC(=O)O)[C@H]3COC(=O)[C@H]23)OCO4)cc(OC)c1OC,T/C,"dose: 3.12 mg/kg/injection, schedule: Q01DX005 (ip), vehicle: saline",100 % of control
same,T/C,"dose: 6.25 mg/kg/injection, schedule: Q01DX005 (ip), vehicle: saline",104 % of control
same,T/C,"dose: 12.5 mg/kg/injection, schedule: Q01DX005 (ip), vehicle: saline",110 % of control and 122 % of control
O=C(CC(=O)N1CCN=C1Nc1c(Cl)cccc1Cl)c1ccc(Cl)cc1,T/C,"dose: 6.25 mg/kg/injection, schedule: Q01DX009 (ip), vehicle: Klucel (hydroxypropylcellulose) (HPC)",109 % of control
same,T/C,"dose: 12.5 mg/kg/injection, schedule: Q01DX009 (ip), vehicle: Klucel (hydroxypropylcellulose) (HPC)",105 % of control
same,T/C,"dose: 25.0 mg/kg/injection, schedule: Q01DX009 (ip), vehicle: Klucel (hydroxypropylcellulose) (HPC)",96 % of control
COC(=O)C[C@H]1[C@]2(C)C[C@@]34OC5(C)O[C@]6([C@@H]7CC(=O)OC(c8ccoc8)[C@]7(C)[C@@H](OC(C)=O)C[C@]6(O5)[C@@]13C)[C@H](OC(=O)C(C)C)[C@]4(O)[C@H]2OC(=O)C(C)C (stereo partly specified),T/C,"dose: 0.37 mg/kg/injection, schedule: Q01DX009 (ip), vehicle: Klucel (hydroxypropylcellulose) (HPC)",95 % of control
same,T/C,"dose: 0.75 mg/kg/injection, schedule: Q01DX009 (ip), vehicle: Klucel (hydroxypropylcellulose) (HPC)",94 % of control
same,T/C,"dose: 1.5 mg/kg/injection, schedule: Q01DX009 (ip), vehicle: Klucel (hydroxypropylcellulose) (HPC)",98 % of control
same,T/C,"dose: 3.0 mg/kg/injection, schedule: Q01DX009 (ip), vehicle: Klucel (hydroxypropylcellulose) (HPC)",93 % of control
CN(C)c1ccc(/C=C2/CCC2=O)cc1,T/C,"dose: 100.0 mg/kg/injection, schedule: Q04DX003 (ip), vehicle: Klucel (hydroxypropylcellulose) (HPC)",96 % of control
same,T/C,"dose: 200.0 mg/kg/injection, schedule: Q04DX003 (ip), vehicle: Klucel (hydroxypropylcellulose) (HPC)",97 % of control
same,T/C,"dose: 400.0 mg/kg/injection, schedule: Q04DX003 (ip), vehicle: Klucel (hydroxypropylcellulose) (HPC)",95 % of control
CN=C(N)N/N=C(\c1ccc(Cl)cc1)c1ccc([N+](=O)[O-])cc1Cl,T/C,"dose: 25.0 mg/kg/injection, schedule: Q04DX002 (ip), vehicle: saline with Tween-80",100 % of control
same,T/C,"dose: 50.0 mg/kg/injection, schedule: Q04DX002 (ip), vehicle: saline with Tween-80",101 % of control
